Columns and labels:
Format in all cases: in vivo
[1] = test system: Veronica persica; test: Herbicidal activity, postemergence test; settings: post; sprayed onto seedling plants, 800 g of active material per hectare; evaluated 2 weeks after treatment
Method in brief: (§1)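 Spray dose 800 g a.i./ha in 900 L/ha; acetone stock with 0.4% Triton X-155, water-diluted. Pre: sown loam soil, read at 3 wk. Post: seedling plants, read at 2 wk. Visual 0-9 rating vs untreated.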

[2] = test system: Zea mays; test: Herbicidal activity, postemergence test; settings: post; sprayed onto seedling plants, 800 g of active material per hectare; evaluated 2 weeks after treatment
Method in brief: as §1

[3] = test system: Ambrosia artemisifolia; test: Herbicidal activity, postemergence test; settings: post; sprayed onto seedling plants, 800 g of active material per hectare; evaluated 2 weeks after treatment
Method in brief: as §1

[4] = test system: Amaranthus retroflexus; test: Herbicidal activity, postemergence test; settings: post; sprayed onto seedling plants, 800 g of active material per hectare; evaluated 2 weeks after treatment
Method in brief: as §1

[5] = test system: Glycine max; test: Herbicidal activity, postemergence test; settings: post; sprayed onto seedling plants, 800 g of active material per hectare; evaluated 2 weeks after treatment
Method in brief: as §1

[6] = test system: Lamium purpureum; test: Herbicidal activity, postemergence test; settings: post; sprayed onto seedling plants, 800 g of active material per hectare; evaluated 2 weeks after treatment
Method in brief: as §1

[7] = test system: Chenopodium album; test: Herbicidal activity, postemergence test; settings: post; sprayed onto seedling plants, 800 g of active material per hectare; evaluated 2 weeks after treatment
Method in brief: as §1

[8] = test system: Alopecurus myosuroides; test: Herbicidal activity, postemergence test; settings: post; sprayed onto seedling plants, 800 g of active material per hectare; evaluated 2 weeks after treatment
Method in brief: as §1

[9] = test system: Triticum aestivum; test: Herbicidal activity, postemergence test; settings: post; sprayed onto seedling plants, 800 g of active material per hectare; evaluated 2 weeks after treatment
Method in brief: as §1

[10] = test system: Papaver rhoeas; test: Herbicidal activity, postemergence test; settings: post; sprayed onto seedling plants, 800 g of active material per hectare; evaluated 2 weeks after treatment
Method in brief: as §1

[11] = test system: Hordeum vulgare; test: Herbicidal activity, postemergence test; settings: post; sprayed onto seedling plants, 800 g of active material per hectare; evaluated 2 weeks after treatment
Method in brief: as §1

[12] = test system: Matricaria inodora; test: Herbicidal activity, postemergence test; settings: post; sprayed onto seedling plants, 800 g of active material per hectare; evaluated 2 weeks after treatment
Method in brief: as §1

[13] = test system: Ipomoea hederacea; test: Herbicidal activity, postemergence test; settings: post; sprayed onto seedling plants, 800 g of active material per hectare; evaluated 2 weeks after treatment
Method in brief: as §1

[14] = test system: Stellaria media; test: Herbicidal activity, postemergence test; settings: post; sprayed onto seedling plants, 800 g of active material per hectare; evaluated 2 weeks after treatment
Method in brief: as §1

[15] = test system: Setaria viridis; test: Herbicidal activity, postemergence test; settings: post; sprayed onto seedling plants, 800 g of active material per hectare; evaluated 2 weeks after treatment
Method in brief: as §1

[16] = test system: Abutilon theophrasti; test: Herbicidal activity, postemergence test; settings: post; sprayed onto seedling plants, 800 g of active material per hectare; evaluated 2 weeks after treatment
Method in brief: as §1

[17] = test system: Gossypium hirsutum; test: Herbicidal activity, postemergence test; settings: post; sprayed onto seedling plants, 800 g of active material per hectare; evaluated 2 weeks after treatment
Method in brief: as §1

[18] = test system: Galium aparine; test: Herbicidal activity, postemergence test; settings: post; sprayed onto seedling plants, 800 g of active material per hectare; evaluated 2 weeks after treatment
Method in brief: as §1

[19] = test system: Veronica persica; test: Herbicidal activity, preemergence test; settings: pre; sprayed onto soil, 800 g of active material per hectare; evaluated 3 weeks after treatment
Method in brief: as §1

[20] = test system: Zea mays; test: Herbicidal activity, preemergence test; settings: pre; sprayed onto soil, 800 g of active material per hectare; evaluated 3 weeks after treatment
Method in brief: as §1

[21] = test system: Ambrosia artemisifolia; test: Herbicidal activity, preemergence test; settings: pre; sprayed onto soil, 800 g of active material per hectare; evaluated 3 weeks after treatment
Method in brief: as §1

[22] = test system: Amaranthus retroflexus; test: Herbicidal activity, preemergence test; settings: pre; sprayed onto soil, 800 g of active material per hectare; evaluated 3 weeks after treatment
Method in brief: as §1

[23] = test system: Glycine max; test: Herbicidal activity, preemergence test; settings: pre; sprayed onto soil, 800 g of active material per hectare; evaluated 3 weeks after treatment
Method in brief: as §1

[24] = test system: Lamium purpureum; test: Herbicidal activity, preemergence test; settings: pre; sprayed onto soil, 800 g of active material per hectare; evaluated 3 weeks after treatment
Method in brief: as §1

[25] = test system: Chenopodium album; test: Herbicidal activity, preemergence test; settings: pre; sprayed onto soil, 800 g of active material per hectare; evaluated 3 weeks after treatment
Method in brief: as §1

[26] = test system: Alopecurus myosuroides; test: Herbicidal activity, preemergence test; settings: pre; sprayed onto soil, 800 g of active material per hectare; evaluated 3 weeks after treatment
Method in brief: as §1

[27] = test system: Triticum aestivum; test: Herbicidal activity, preemergence test; settings: pre; sprayed onto soil, 800 g of active material per hectare; evaluated 3 weeks after treatment
Method in brief: as §1

[28] = test system: Papaver rhoeas; test: Herbicidal activity, preemergence test; settings: pre; sprayed onto soil, 800 g of active material per hectare; evaluated 3 weeks after treatment
Method in brief: as §1

[29] = test system: Hordeum vulgare; test: Herbicidal activity, preemergence test; settings: pre; sprayed onto soil, 800 g of active material per hectare; evaluated 3 weeks after treatment
Method in brief: as §1

[30] = test system: Matricaria inodora; test: Herbicidal activity, preemergence test; settings: pre; sprayed onto soil, 800 g of active material per hectare; evaluated 3 weeks after treatment
Method in brief: as §1

[31] = test system: Ipomoea hederacea; test: Herbicidal activity, preemergence test; settings: pre; sprayed onto soil, 800 g of active material per hectare; evaluated 3 weeks after treatment
Method in brief: as §1

[32] = test system: Stellaria media; test: Herbicidal activity, preemergence test; settings: pre; sprayed onto soil, 800 g of active material per hectare; evaluated 3 weeks after treatment
Method in brief: as §1

[33] = test system: Setaria viridis; test: Herbicidal activity, preemergence test; settings: pre; sprayed onto soil, 800 g of active material per hectare; evaluated 3 weeks after treatment
Method in brief: as §1

[34] = test system: Abutilon theophrasti; test: Herbicidal activity, preemergence test; settings: pre; sprayed onto soil, 800 g of active material per hectare; evaluated 3 weeks after treatment
Method in brief: as §1

[35] = test system: Gossypium hirsutum; test: Herbicidal activity, preemergence test; settings: pre; sprayed onto soil, 800 g of active material per hectare; evaluated 3 weeks after treatment
Method in brief: as §1

[36] = test system: Galium aparine; test: Herbicidal activity, preemergence test; settings: pre; sprayed onto soil, 800 g of active material per hectare; evaluated 3 weeks after treatment
Method in brief: as §1

SMILES | VERPE control rating (0-9) [1] | ZEAMX control rating (0-9) [2] | AMBEL control rating (0-9) [3] | AMARE control rating (0-9) [4] | GLXMA control rating (0-9) [5] | LAMPU control rating (0-9) [6] | CHEAL control rating (0-9) [7] | ALOMY control rating (0-9) [8] | TRZAW control rating (0-9) [9] | PAPRH control rating (0-9) [10] | HORVW control rating (0-9) [11] | MATIN control rating (0-9) [12] | IPOHE control rating (0-9) [13] | STEME control rating (0-9) [14] | SETVI control rating (0-9) [15] | ABUTH control rating (0-9) [16] | GOSHI control rating (0-9) [17] | GALAP control rating (0-9) [18] | VERPE control rating (0-9) [19] | ZEAMX control rating (0-9) [20] | other results
C[C@H](NC(=O)c1nnc(-c2c(F)cccc2F)o1)c1ccccc1 [Example 24] | 9 (complete kill) | 2 (slight effect) | 8 (approaching complete kill) | 9 (complete kill) | 4 (injury) | 8 (approaching complete kill) | 9 (complete kill) | 2 (slight effect) | 3 (moderate effect) | 6 (herbicidal effect) | 2 (slight effect) | 4 (injury) | 5 (definite injury) | 8 (approaching complete kill) | 6 (herbicidal effect) | 9 (complete kill) | 8 (approaching complete kill) | 5 (definite injury) | 9 (complete kill) | 0 (no effect) | AMBEL control rating (0-9) [21]: 3 (moderate effect); AMARE control rating (0-9) [22]: 9 (complete kill); GLXMA control rating (0-9) [23]: 0 (no effect); LAMPU control rating (0-9) [24]: 7 (good herbicidal effect); CHEAL control rating (0-9) [25]: 8 (approaching complete kill); ALOMY control rating (0-9) [26]: 2 (slight effect); TRZAW control rating (0-9) [27]: 0 (no effect); PAPRH control rating (0-9) [28]: 9 (complete kill); HORVW control rating (0-9) [29]: 0 (no effect); MATIN control rating (0-9) [30]: 9 (complete kill); IPOHE control rating (0-9) [31]: 2 (slight effect); STEME control rating (0-9) [32]: 8 (approaching complete kill); SETVI control rating (0-9) [33]: 8 (approaching complete kill); ABUTH control rating (0-9) [34]: 7 (good herbicidal effect); GOSHI control rating (0-9) [35]: 0 (no effect); GALAP control rating (0-9) [36]: 0 (no effect)
C[C@H](NC(=O)c1nnc(-c2c(Cl)cccc2Cl)o1)c1ccccc1 [Example 25] | 0 (no effect) | 0 (no effect) | 0 (no effect) | 5 (definite injury) | 1 (trace effect) | 1 (trace effect) | 5 (definite injury) | 0 (no effect) | 0 (no effect) | 2 (slight effect) | 0 (no effect) | 0 (no effect) | 1 (trace effect) | 0 (no effect) | 0 (no effect) | 1 (trace effect) | 0 (no effect) | 0 (no effect) | 0 (no effect) | 0 (no effect) | AMBEL control rating (0-9) [21]: 0 (no effect); AMARE control rating (0-9) [22]: 3 (moderate effect); GLXMA control rating (0-9) [23]: 0 (no effect); LAMPU control rating (0-9) [24]: 0 (no effect); CHEAL control rating (0-9) [25]: 0 (no effect); ALOMY control rating (0-9) [26]: 0 (no effect); TRZAW control rating (0-9) [27]: 0 (no effect); PAPRH control rating (0-9) [28]: 3 (moderate effect); HORVW control rating (0-9) [29]: 0 (no effect); MATIN control rating (0-9) [30]: 0 (no effect); IPOHE control rating (0-9) [31]: 0 (no effect); STEME control rating (0-9) [32]: 0 (no effect); SETVI control rating (0-9) [33]: 0 (no effect); ABUTH control rating (0-9) [34]: 0 (no effect); GOSHI control rating (0-9) [35]: 0 (no effect); GALAP control rating (0-9) [36]: 0 (no effect)

Reference: patent publication EP0726263A2, “Herbicidal (1,3,4)oxadiazoles and thiadiazoles” (American Cyanamid Company, priority 1995, dated 1996)
